Measurements taken from BindingDB's records for patent US20250034165 (Chia Tai Tianqing Pharmaceutical Group, 2025).

What was measured:
[1] = target: Epidermal growth factor receptor (EGFR)(L858R)(T790M) (Homo sapiens, UniProt P00533, L858R/T790M); assay: Inhibitory Activity for EGFR (L858R/T790M) Kinase
Method: (§1) A 50 ng/μL EGFR (L858R/T790M, Carna) stock solution was diluted with a kinase buffer (50 mM HEPES, 10 mM MgCl2, 2 mM DTT, 1 mM EGTA, 0.01% Tween 20), and 6 μL of 1.67× working solution at 0.004175 ng/μL (final concentration: 0.0025 ng/μL) was added to each well. Different compounds dissolved in DMSO were added to wells using a nanoliter pipettor, resulting in the final concentrations of the compounds of 10 nM to 0.0024 nM (4-fold gradient, 7 concentrations in total), and blank control wells (without enzyme) and negative control wells (with enzyme, plus vehicle DMSO) were set, 2 replicate wells for each concentration. After enzyme was reacted with the compound or vehicle for 30 min, 5×ATP at 25 μM (final concentration: 5 μM, Sigma) prepared with a kinase buffer was mixed with 5× substrate at 0.5 μM (final concentration: 0.1 μM, ULight-poly GT, PerkinElmer) at a ratio of 1:1 (v:v), and the mixture was added to each well at 4 μL/well. After being sealed with a film, the plate was incubated at room temperature for 2 h, and then 5 μL of 4×EDTA at 40 mM (final concentration: 10 mM) was added to each well. After the plate was incubated for 5 min at room temperature, 5 μL of 4× detection reagent at 8 nM (final concentration: 2 nM, Eu-anti-phospho-tyrosine antibody, PerkinElmer) was added to each well. After being incubated at room temperature for 1 h, the plate was read using a PerkinElmer Envision multi-mode microplate reader (excitation: 320 nm, emission: 665 nm), and IC50 was calculated by four-parameter fitting.

[2] = target: Epidermal growth factor receptor [T790M,C797S,L858R] (UniProt P00533, C797S/L858R/T790M); assay: Inhibitory Activity for EGFR (L858R/T790M/C797S) Kinase
Chain of Epidermal growth factor receptor [T790M,C797S,L858R] (P00533 25-1210 T790M/C797S/L858R limits assumed): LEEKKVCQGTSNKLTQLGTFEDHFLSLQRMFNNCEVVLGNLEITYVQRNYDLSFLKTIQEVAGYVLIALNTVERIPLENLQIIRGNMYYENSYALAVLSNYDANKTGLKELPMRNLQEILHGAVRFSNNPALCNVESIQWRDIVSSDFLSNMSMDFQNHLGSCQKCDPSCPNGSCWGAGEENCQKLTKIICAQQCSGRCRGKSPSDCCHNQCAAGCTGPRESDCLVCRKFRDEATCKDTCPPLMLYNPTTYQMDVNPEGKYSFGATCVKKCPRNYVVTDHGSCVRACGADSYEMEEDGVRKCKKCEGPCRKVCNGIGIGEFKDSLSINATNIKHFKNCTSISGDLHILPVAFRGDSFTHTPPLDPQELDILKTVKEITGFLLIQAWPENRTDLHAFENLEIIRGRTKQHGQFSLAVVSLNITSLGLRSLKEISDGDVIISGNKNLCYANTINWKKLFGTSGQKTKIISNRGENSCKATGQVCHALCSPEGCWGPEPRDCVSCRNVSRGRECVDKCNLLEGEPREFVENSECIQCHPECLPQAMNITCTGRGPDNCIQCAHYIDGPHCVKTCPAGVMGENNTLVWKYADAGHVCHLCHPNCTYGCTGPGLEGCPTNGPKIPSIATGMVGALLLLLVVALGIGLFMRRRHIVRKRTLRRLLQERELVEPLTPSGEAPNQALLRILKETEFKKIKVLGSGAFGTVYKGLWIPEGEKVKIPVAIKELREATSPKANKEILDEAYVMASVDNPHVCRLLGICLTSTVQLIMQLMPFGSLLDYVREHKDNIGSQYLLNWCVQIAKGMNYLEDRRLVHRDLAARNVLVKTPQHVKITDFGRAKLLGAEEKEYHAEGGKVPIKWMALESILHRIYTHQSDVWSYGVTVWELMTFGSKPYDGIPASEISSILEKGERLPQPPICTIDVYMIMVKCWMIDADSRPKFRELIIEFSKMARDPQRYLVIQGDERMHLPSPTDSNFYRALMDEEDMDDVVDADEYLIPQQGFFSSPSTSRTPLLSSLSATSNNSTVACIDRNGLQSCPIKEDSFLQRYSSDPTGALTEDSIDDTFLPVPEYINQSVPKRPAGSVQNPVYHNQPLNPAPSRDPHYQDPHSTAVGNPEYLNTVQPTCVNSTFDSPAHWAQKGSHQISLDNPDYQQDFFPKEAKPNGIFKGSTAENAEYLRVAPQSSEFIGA
Method: as §1, with “(L858R/T790M/C797S, BPS)” for “(L858R/T790M, Carna)”, “0.00167” for “0.004175”, “0.001” for “0.0025”

[3] = target: Epidermal growth factor receptor (Homo sapiens, UniProt P00533); assay: Inhibitory Activity for EGFR (WT) Kinase
Chain of Epidermal growth factor receptor (P00533 whole entry): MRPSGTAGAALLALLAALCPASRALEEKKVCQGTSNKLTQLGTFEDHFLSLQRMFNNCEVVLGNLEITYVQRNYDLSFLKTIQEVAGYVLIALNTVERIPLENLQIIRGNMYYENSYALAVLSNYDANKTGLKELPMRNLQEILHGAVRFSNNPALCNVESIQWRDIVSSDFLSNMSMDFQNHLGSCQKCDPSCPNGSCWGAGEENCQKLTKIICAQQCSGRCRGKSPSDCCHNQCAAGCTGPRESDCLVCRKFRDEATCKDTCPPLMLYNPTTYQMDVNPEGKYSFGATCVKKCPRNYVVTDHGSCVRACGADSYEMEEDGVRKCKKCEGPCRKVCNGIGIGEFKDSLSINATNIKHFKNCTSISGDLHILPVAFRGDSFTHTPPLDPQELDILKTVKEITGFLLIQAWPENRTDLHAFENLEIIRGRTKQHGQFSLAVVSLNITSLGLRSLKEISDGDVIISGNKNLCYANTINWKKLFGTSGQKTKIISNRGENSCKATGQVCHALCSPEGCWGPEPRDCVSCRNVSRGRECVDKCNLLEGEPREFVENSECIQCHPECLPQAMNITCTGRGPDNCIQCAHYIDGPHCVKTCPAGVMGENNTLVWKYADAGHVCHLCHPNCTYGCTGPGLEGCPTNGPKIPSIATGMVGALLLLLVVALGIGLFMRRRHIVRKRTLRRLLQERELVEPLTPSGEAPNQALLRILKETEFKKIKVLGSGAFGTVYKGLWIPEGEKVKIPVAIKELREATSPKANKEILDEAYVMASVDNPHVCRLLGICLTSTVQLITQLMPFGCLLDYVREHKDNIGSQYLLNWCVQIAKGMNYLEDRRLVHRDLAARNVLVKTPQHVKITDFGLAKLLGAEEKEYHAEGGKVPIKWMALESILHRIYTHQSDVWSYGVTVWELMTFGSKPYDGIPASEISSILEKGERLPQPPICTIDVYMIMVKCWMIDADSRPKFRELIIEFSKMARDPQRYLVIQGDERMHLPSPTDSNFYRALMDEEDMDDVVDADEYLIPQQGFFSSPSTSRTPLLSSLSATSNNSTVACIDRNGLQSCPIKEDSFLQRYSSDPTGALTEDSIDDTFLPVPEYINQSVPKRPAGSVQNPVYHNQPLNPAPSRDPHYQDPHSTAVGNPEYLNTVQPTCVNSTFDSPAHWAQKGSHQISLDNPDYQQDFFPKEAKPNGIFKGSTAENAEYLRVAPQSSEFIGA
Method: A 50 ng/μL EGFR (WT, Carna) stock solution was diluted with a kinase buffer (50 mM HEPES, 10 mM MgCl2, 2 mM DTT, 1 mM EGTA, 0.01% Tween 20), and 6 μL of 1.67× working solution at 0.005 ng/μL (final concentration: 0.003 ng/μL) was added to each well. Different compounds dissolved in DMSO were added to the wells using a nanoliter pipettor, resulting in the final concentrations of the compounds of 100 nM to 0.0244 nM (4-fold gradient for 7 concentrations in total), and blank control wells (without enzyme) and negative control wells (with enzyme, plus vehicle DMSO) were set, 2 replicate wells for each concentration. After enzyme was reacted with the compound or vehicle for 30 min, 5×ATP at 25 μM (final concentration: 5 μM, Sigma) prepared with a kinase buffer was mixed with 5× substrate at 0.5 μM (final concentration: 0.1 μM, ULight-poly GT, PerkinElmer) at a ratio of 1:1 (v:v), and the mixture was added to each well at 4 μL/well. After being sealed with a film, the plate was incubated at room temperature for 2 h, and then 5 μL of 4×EDTA at 40 mM (final concentration: 10 mM) was added to each well. After the plate was incubated for 5 min at room temperature, 5 μL of 4× detection reagent at 8 nM (final concentration: 2 nM, Eu-anti-phospho-tyrosine antibody, PerkinElmer) was added to each well.

Chain of Epidermal growth factor receptor (EGFR)(L858R)(T790M) (P00533 25-1210 T790M/L858R limits assumed): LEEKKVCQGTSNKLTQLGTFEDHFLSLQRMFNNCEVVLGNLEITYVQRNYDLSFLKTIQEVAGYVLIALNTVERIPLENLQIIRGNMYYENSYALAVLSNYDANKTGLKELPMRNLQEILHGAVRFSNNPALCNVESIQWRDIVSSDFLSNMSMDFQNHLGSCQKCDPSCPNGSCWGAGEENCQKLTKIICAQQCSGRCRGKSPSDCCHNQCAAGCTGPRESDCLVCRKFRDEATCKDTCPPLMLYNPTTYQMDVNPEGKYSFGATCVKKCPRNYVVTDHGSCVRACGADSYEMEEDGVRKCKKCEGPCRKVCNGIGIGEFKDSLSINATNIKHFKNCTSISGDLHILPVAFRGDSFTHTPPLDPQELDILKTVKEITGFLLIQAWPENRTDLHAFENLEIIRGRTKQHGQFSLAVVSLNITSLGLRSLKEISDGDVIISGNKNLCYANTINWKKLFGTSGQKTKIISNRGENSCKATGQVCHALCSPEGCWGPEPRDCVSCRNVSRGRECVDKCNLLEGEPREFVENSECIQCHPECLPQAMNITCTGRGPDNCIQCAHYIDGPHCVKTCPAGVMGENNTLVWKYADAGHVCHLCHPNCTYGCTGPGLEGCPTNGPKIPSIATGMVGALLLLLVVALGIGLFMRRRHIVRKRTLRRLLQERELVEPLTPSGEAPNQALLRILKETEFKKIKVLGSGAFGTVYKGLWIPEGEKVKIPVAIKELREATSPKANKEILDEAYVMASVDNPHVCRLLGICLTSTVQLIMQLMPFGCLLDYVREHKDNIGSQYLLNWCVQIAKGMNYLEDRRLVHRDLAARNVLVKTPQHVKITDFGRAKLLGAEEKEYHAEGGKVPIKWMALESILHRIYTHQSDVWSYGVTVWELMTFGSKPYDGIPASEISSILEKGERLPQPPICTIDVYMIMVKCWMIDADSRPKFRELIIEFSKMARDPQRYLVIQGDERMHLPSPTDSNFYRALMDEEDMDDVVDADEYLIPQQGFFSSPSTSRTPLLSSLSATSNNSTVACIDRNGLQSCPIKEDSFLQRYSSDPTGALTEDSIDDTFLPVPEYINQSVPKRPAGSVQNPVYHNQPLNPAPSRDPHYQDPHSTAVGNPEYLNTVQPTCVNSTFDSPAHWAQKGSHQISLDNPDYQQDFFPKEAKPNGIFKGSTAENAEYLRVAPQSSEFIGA

SMILES	IC50 [1]	IC50 [2]	IC50 [3]
Cc1cc2cc(n1)-c1cnn(C)c1OCCC[C@@H](C1CC1)CN1/C(=N/C2=O)Nc2ccc(N[C@@H](C)CCN3CCCCC3)cc21 [US20250034165, Example 144]	0.08 nM	0.17 nM	–
Cc1cc2cc(n1)-c1cnn(C)c1OCCC[C@@H](C1CC1)CN1/C(=N/C2=O)Nc2ccc(NC(=O)CN(C)C)cc21 [US20250034165, Example 111]	0.26 nM	–	–
Cc1cc2cc(n1)-c1cnn(C)c1OCCC[C@@H](C1CC1)CN1/C(=N/C2=O)Nc2cc(N[C@H]3CC[C@@H](N(C)C)C3)ccc21 [US20250034165, Example 131]	0.094 nM	–	–
Cc1cc2cc(n1)-c1cnn(C)c1OCCC[C@@H](C1CC1)CN1/C(=N/C2=O)Nc2cc(N[C@H]3C[C@@H](N(C)C)C3)ccc21 [US20250034165, Example 125]	0.17 nM	0.094 nM	–
Cc1cc2cc(n1)-c1cnn(C)c1OCCC[C@@H](C1CC1)CN1/C(=N/C2=O)Nc2cc(N[C@H]3C[C@H](N(C)C)C3)ccc21 [US20250034165, Example 126]	0.12 nM	–	–
Cc1cc2cc(n1)-c1cnn(C)c1OCCC[C@@H](C1CC1)CN1/C(=N/C2=O)Nc2cc(N[C@H](C)CN(C)C)ccc21 [US20250034165, Example 67]	0.14 nM	0.49 nM	–
Cc1cc2cc(n1)-c1cnn(C)c1OCCC[C@@H](C1CC1)CN1/C(=N/C2=O)Nc2cc(N[C@H]3CC[C@H](O)CC3)ccc21 [US20250034165, Example 151]	0.23 nM	0.25 nM	–
Cc1cc2cc(n1)-c1cnn(C)c1OCCC[C@@H](C1CC1)CN1/C(=N/C2=O)Nc2cc(N[C@H](C)CCN3CCCCC3)ccc21 [US20250034165, Example 139]	0.087 nM	0.21 nM	–
Cc1cc2cc(n1)-c1cnn(C)c1OCCC[C@@H](C1CC1)CN1/C(=N/C2=O)Nc2cc(NC3CC(N(C)C)C3)ccc21 (some centres not stated) [US20250034165, Example 93]	0.61 nM	0.5 nM	–
Cc1cc2cc(n1)-c1cnn(C)c1OCCC[C@@H](C1CC1)CN1/C(=N/C2=O)Nc2ccc(N[C@H](C)CN3CCCCC3)cc21 [US20250034165, Example 141]	0.084 nM	0.24 nM	–
Cc1cc2cc(n1)-c1cnn(C)c1OCCC[C@@H](C1CC1)CN1/C(=N/C2=O)Nc2ccc(N[C@@H]3CC[C@H](N(C)C)C3)cc21 [US20250034165, Example 134]	0.55 nM	0.48 nM	–
Cc1cc2cc(n1)-c1cnn(C)c1OCCC[C@@H](C1CC1)CN1/C(=N/C2=O)Nc2ccc(N[C@H]3C[C@@H](N(C)C)C3)cc21 [US20250034165, Example 127]	0.41 nM	0.35 nM	–
Cc1cc2cc(n1)-c1cnn(C)c1OCCC[C@@H](C1CC1)CN1/C(=N/C2=O)Nc2cc(N[C@@H]3CC[C@H](N(C)C)C3)ccc21 [US20250034165, Example 133]	0.49 nM	0.66 nM	–
Cc1cc2cc(n1)-c1cnn(C)c1OCCC[C@@H](C1CC1)CN1/C(=N/C2=O)Nc2cc(N[C@H]3CC[C@H](N(C)C)C3)ccc21 [US20250034165, Example 135]	0.32 nM	0.43 nM	–
Cc1cc2cc(n1)-c1cnn(C)c1OCCC[C@@H](C1CC1)CN1/C(=N/C2=O)Nc2cc(N[C@@H](C)CCN3CCCCC3)ccc21 [US20250034165, Example 140]	0.11 nM	0.3 nM	–
Cc1cc2cc(n1)-c1cnn(C)c1OCCC[C@@H](C1CC1)CN1/C(=N/C2=O)Nc2ccc(N[C@@H](C)CN3CCCCC3)cc21 [US20250034165, Example 142]	0.14 nM	0.35 nM	–

SMILES	IC50 [1]	IC50 [2]	IC50 [3]
Cc1cc2cc(n1)-c1cnn(C)c1OCCC[C@@H](C1CC1)CN1/C(=N/C2=O)Nc2ccc(NC3CC(N(C)C)C3)cc21 (some centres not stated) [US20250034165, Example 98]	0.26 nM	0.28 nM	–
Cc1cc2cc(n1)-c1cnn(C)c1OCCC[C@@H](C1CC1)CN1/C(=N/C2=O)Nc2ccc(NCCN(C)C)cc21 [US20250034165, Example 28]	–	–	0.45 nM
Cc1cc2cc(n1)-c1cnn(C)c1OCCC[C@@H](C1CC1)CN1/C(=N/C2=O)Nc2ccc(N[C@H](C)CCN3CCCCC3)cc21 [US20250034165, Example 143]	0.11 nM	0.4 nM	–
Cc1cc2cc(n1)-c1cnn(C)c1OCCC[C@@H](C1CC1)CN1/C(=N/C2=O)Nc2cc(N[C@@H]3CC[C@@H](N(C)C)C3)ccc21 [US20250034165, Example 129]	0.3 nM	0.39 nM	–
Cc1cc2cc(n1)-c1cnn(C)c1OCCC[C@@H](C1CC1)CN1/C(=N/C2=O)Nc2ccc(N[C@H]3CC[C@H](N(C)C)C3)cc21 [US20250034165, Example 136]	0.71 nM	0.34 nM	–
Cc1cc2cc(n1)-c1cnn(C)c1OCCC[C@@H](C1CC1)CN1/C(=N/C2=O)Nc2ccc(N[C@@H]3CC[C@@H](N(C)C)C3)cc21 [US20250034165, Example 130]	0.3 nM	0.36 nM	–
Cc1cc2cc(n1)-c1cnn(C)c1OCCC[C@@H](C1CC1)CN1/C(=N/C2=O)Nc2ccc(NC(=O)CCN(C)C)cc21 [US20250034165, Example 112]	0.14 nM	0.12 nM	–
Cc1cc2cc(n1)-c1cnn(C)c1OCCC[C@@H](C1CC1)CN1/C(=N/C2=O)Nc2cc(N[C@@H](C)CN3CCCCC3)ccc21 [US20250034165, Example 138]	0.13 nM	0.35 nM	–
Cc1cc2cc(n1)-c1cnn(C)c1OCCC[C@@H](C1CC1)CN1/C(=N/C2=O)Nc2ccc(N[C@H]3C[C@H](N(C)C)C3)cc21 [US20250034165, Example 128]	0.63 nM	0.46 nM	–
Cc1cc2cc(n1)-c1cnn(C)c1OCCC[C@@H](C1CC1)CN1/C(=N/C2=O)Nc2cc(NC(C)C3(C)COC3)ccc21 (some centres not stated) [US20250034165, Example 89]	0.8 nM	0.6 nM	–
Cc1cc2cc(n1)-c1cnn(C)c1OCCC[C@@H](C1CC1)CN1/C(=N/C2=O)Nc2ccc(N(C)C3CCN(C)CC3)cc21 [US20250034165, Example 117]	0.77 nM	0.45 nM	–
Cc1cc2cc(n1)-c1cnn(C)c1OCCC[C@@H](C1CC1)CN1/C(=N/C2=O)Nc2ccc(N[C@H]3CC[C@@H](N(C)C)CC3)cc21 [US20250034165, Example 99]	–	0.21 nM	–
Cc1cc2cc(n1)-c1cnn(C)c1OCCC[C@@H](C1CC1)CN1/C(=N/C2=O)Nc2ccc(N[C@H]3CC[C@@H](N(C)C)C3)cc21 [US20250034165, Example 132]	0.082 nM	–	–
Cc1cc2cc(n1)-c1cnn(C)c1OCCC[C@@H](C1CC1)CN1/C(=N/C2=O)Nc2ccc(N[C@H]3CC[C@H](N(C)C)CC3)cc21 [US20250034165, Example 100]	0.23 nM	–	–
Cc1cc2cc(n1)-c1cnn(C)c1OCCC[C@@H](C1CC1)CN1/C(=N/C2=O)Nc2cc(N[C@H](C)CN3CCCCC3)ccc21 [US20250034165, Example 137]	0.13 nM	0.52 nM	–
Cc1cc2cc(n1)-c1cnn(C)c1OCCC[C@@H](C1CC1)CN1/C(=N/C2=O)Nc2ccc(NC(=O)CCCN(C)C)cc21 [US20250034165, Example 113]	0.15 nM	0.12 nM	–
